Laboratory results published in a melting point compilation (Tetko et al.).

Structure (SMILES)	melting point [°C]
Cc1ccc(F)c2c1C(=O)C(=O)N2	204 to 206
CCS(=O)(=O)c1ccc2c(c1)N(CC(=O)O)CC(=O)O2	188 to 190
CC(C)c1cnc(S)n1C	124 to 126
CC1CN(C(=O)CC#N)CC(C)O1 (centres undefined)	125 to 127
O=C(O)c1cc(-c2ccco2)nc2onc(C3CC3)c12	215 to 217
CN(C)C(=O)c1cccc(Br)c1	52 to 54
CC(=O)c1cc(-c2ccccc2)ccc1O	49 to 51
COC(=O)c1sc(-c2ccccc2)cc1O	94 to 96
OC(CN1CCNCC1)c1ccccc1 (centres undefined)	67 to 69
O=C(O)c1cc2ccc(F)cc2s1	220 to 222
Sc1nc2ccccc2nc1S	345 to 347
CN(Cc1ccccc1N)C(=O)c1cc2ccccc2o1	109 to 111
O=C(O)CCCNc1ccc([N+](=O)[O-])cc1	158 to 160
O=C(O)CNC(=O)COc1ccccc1	89 to 91
Clc1ccc2c(c1)CCCN2	37 to 39
COc1ccc(Cc2nc3sc4c(c3c(=O)[nH]2)CCC4)cc1OC	237 to 239
CC(=O)NC=C(Cl)Cl	85 to 87
N#CN=C1CCCN1	126 to 128
Cc1nc(C)c(CC(=O)O)c(=O)[nH]1	229 to 231
Cc1cc(=O)[nH]cn1	138 to 140
CS(=O)(=O)c1cc(N)cc(C(=O)O)c1	257 to 259
Cc1c(N)cccc1S(=O)(=O)NC(C)(C)C	185 to 187
O=C(O)c1c[nH]c2nccc(Cl)c12	189 to 191
O=C(CCl)Nc1ccc(S(=O)(=O)N2CCOCC2)cc1	145 to 147

Structure (SMILES)	melting point [°C]
C#CCNC(=O)CN1C(=O)C(=O)c2cc(Cl)ccc21	267 to 269
Nc1cc(F)c(Br)cc1C(=O)O	189 to 191
COc1ccc(-c2csc(NC(=O)CCl)n2)c(OC)c1	109 to 111
Clc1cc2c(cc1Br)OCCN2	124 to 126
NC(=O)c1ccc(NCCO)c([N+](=O)[O-])c1	218 to 220
Cn1[nH]c(-c2ccco2)c(-c2ccc3c(c2)OCO3)c1=N	140 to 142
O=C(O)c1ccccc1SC(F)(F)F	120 to 122
Nc1nnc(-c2cc(F)cc(Br)c2)s1	192 to 194
Cc1ccc([N+](=O)[O-])c(C)c1N	80 to 82
O=c1[nH]c2ccccc2cc1CO	239 to 241
COc1ncc(C)cc1N	77 to 79
O=Cc1c[nH]nc1-c1cccnc1	208 to 210
CC(Nc1ccc(Cl)cc1Cl)C(=O)O (centres undefined)	146 to 148
CN(C)CCC(=O)O	130 to 132
Cc1cc(F)c2nc(O)cc(C(=O)O)c2c1	337 to 339
O=S(=O)(Cl)c1cc2c(cc1Br)OCCO2	173 to 175
CNc1nc2ccccc2o1	99 to 101
C#CCN1C(=O)C=CC1=O	46 to 48
Cn1ccc(C(=O)c2ccc(F)cc2)n1	68 to 70
O=c1[nH]c2ccc(NCc3cccc(Cl)c3)cc2[nH]1	217 to 219
COc1cc(S(=O)(=O)Cl)cc(C(=O)O)c1OC	159 to 161
Cc1cccc(NCCC(N)=O)c1	91 to 93
Cc1cc(C)n(-c2ccc(N)cc2F)n1	124 to 126
O=C(O)c1cc(-c2ccc(C(F)(F)F)cc2)no1	329 to 331

Structure (SMILES)	melting point [°C]
CCS(=O)(=O)Nc1cc(Br)ccc1OC	105 to 107
O=C(O)CCc1ccc([N+](=O)[O-])cn1	135 to 137
O=Cc1ccc(-c2ccc(C(=O)O)cc2)o1	313 to 315
Cc1nn(CC(=O)O)c(C)c1/C=N/O	203 to 205
Cc1nn(Cc2c(Cl)cccc2Cl)c2sc(C(=O)O)cc12	282 to 284
Cc1ccc(-c2csc(CC#N)n2)cc1	91 to 93
O=C1COc2ccccc2C(=O)N1	149 to 151
NC(=NO)c1cccc(NC(=O)CN2CCOCC2)c1	99 to 101
COc1cc(I)c(Cl)cc1C(=O)O	141 to 143
CCOc1ccc(C(=O)N2CCCCC2)cc1N	143 to 145
Oc1nnc(-c2ccccc2)o1	138 to 140
CSc1ncc(C(=O)O)n1-c1ccccc1	206 to 208
CC(C)Cn1ncc(C(=O)O)c1C(F)F	99 to 101
Clc1ccc2c(Cl)ncnc2c1	136 to 138
O=C(O)CCc1ccc(S(=O)(=O)NC2CC2)cc1	173 to 175
Cc1cc(Cl)c2c(c1)C(=O)C(=O)N2	173 to 175
OCc1c(Cl)nc2ccccn12	177 to 179
Nc1ccc(N2CCc3sccc3C2)cc1	61 to 63
Nc1ccccc1CN1C(=O)CCC1=O	108 to 110
O=Cc1ccc([N+](=O)[O-])c(O)c1	132 to 134
N#Cc1ccccc1Sc1ccc(C(=O)O)cc1	182 to 184
CC(=O)Nc1cccc(C(C)N)c1 (centres undefined)	59 to 61
Cc1c(C(=O)O)sc2nccn12	241 to 243
CC(Sc1ccccc1Cl)C(=O)O (centres undefined)	50 to 52

Structure (SMILES)	melting point [°C]
O=C(NO)C1CCCC1	107 to 109
NC(=O)c1cccc(N)n1	141 to 143
CC(C)(C)c1ccc(SCC(=O)O)cc1	65 to 67
O=Cc1ccc(-n2ccc(C(F)(F)F)n2)cc1	68 to 70
Nc1ccccc1CS(=O)(=O)c1ccccc1	172 to 174
N#CCCSc1ccccc1N	45 to 47
CS(=O)(=O)c1ccc(S)cc1	63 to 65
COc1cc(OC)cc(C(=O)c2c(N)sc3c2CCC(C)C3)c1 (centres undefined)	162 to 164
CCOc1ccc(CN2C(=O)c3ccccc3C2=O)cc1C(=O)O	172 to 174
CCOC(=O)c1nn(-c2ccccc2)cc1O	86 to 88
COc1ccc(NC(=O)OCC(F)(F)F)cc1	79 to 81
Cc1cc(N)nn1C	49 to 51
CCOC(=O)c1snc(C(N)=O)c1N	205 to 207
O=C(NC1CC1)c1cc([N+](=O)[O-])ccc1Cl	180 to 182
O=C1CCCCc2c[nH]cc21	64 to 66
Cc1cc(Oc2ncccn2)ccc1N	132 to 134
CSc1nc2ncnc(Cl)c2s1	149 to 151
CCN(CC)c1ccc(-c2nnc(S)o2)cc1	163 to 165
CC(Cl)C(=O)Nc1cccc(S(=O)(=O)N2CCCCC2)c1 (centres undefined)	163 to 165
O=C(O)CSCc1nc2sc3c(c2c(=O)[nH]1)CCC3	198 to 200
COc1cc(N)cc(OC)c1Br	149 to 151
O=C1CCc2cc(OCCO)ccc2N1	180 to 182
CCSc1ccc([N+](=O)[O-])cc1C(=O)O	189 to 191
CC(C)c1cc(C(=O)O)c2cnn(C(C)C)c2n1	144 to 146

Structure (SMILES)	melting point [°C]
COc1ccnc(CO)c1	70 to 72
CCOc1cc(C=O)ccc1OCc1c(Cl)cccc1Cl	115 to 117
O=C(NC(Cc1ccc(O)cc1)C(=O)O)c1cnccn1 (centres undefined)	234 to 236
O=C(CCl)Nc1nnc(-c2ccco2)o1	194 to 196
Cc1cc(NC(=O)OC(C)(C)C)ccc1N	103 to 105
CC(C)N(C)S(=O)(=O)c1ccc(Cl)c(C(=O)O)c1	154 to 156
NC(=NO)C1CCCC1	74 to 76
N#Cc1cc(Cl)ccc1CS(=O)(=O)Cl	106 to 108
Cc1cc2ccccc2n1CC(=O)O	184 to 186
Cc1noc2nc(-c3cccs3)cc(C(=O)O)c12	138 to 140
O=S(=O)(c1cccc(C(F)(F)F)c1)N1CCNCC1	100 to 110
O=C(O)C1(c2cccc(F)c2)CC1	115 to 117
Nc1ccc(OCC(F)(F)F)cc1	66 to 68
Cc1n[nH]c2ncc(C=O)cc12	202 to 204
CC(C)CN1CCCCC1C(=O)O (centres undefined)	198 to 200
NC(=O)c1ccc(C(=O)O)nc1	249 to 251
O=C(O)C1CCN(C=CC(=O)C(F)(F)F)CC1	135 to 137
Nc1cccc(NC(=O)N2CCCCCC2)c1	121 to 123
O=C(O)c1cccc(NS(=O)(=O)c2ccc3ccccc3c2)c1	205 to 207
O=c1cc(O)c2ccccc2o1	211 to 215
O=c1n(CCCl)nc2ccccn12	139 to 141
Cc1ccc(N)cc1S(=O)(=O)N1CCCCCC1	44 to 46
Clc1ccc(CBr)c2ncccc12	94 to 96
Cn1c(S)nnc1-c1ccncc1	121 to 123

Structure (SMILES)	melting point [°C]
N#Cc1cc([N+](=O)[O-])cnc1O	259 to 261
FC(F)(F)c1cc(Cl)ccc1-n1nnnc1CCl	101 to 103
Cn1c(S)nnc1-c1ccco1	179 to 181
c1ccc2c(c1)CC(n1ccnc1)CN2 (centres undefined)	110 to 112
Cc1oncc1C(=O)Nc1ccc(C(=O)O)c(O)c1	214 to 216
CN(C(=O)c1ccc(N)cc1)C1CCCCC1	176 to 178
Nc1ccc2c(c1)oc1ccccc12	89 to 91
Nc1ccc(F)c(NC(=O)c2ccccc2I)c1	147 to 149
NNC(=O)Cn1ccc2ccccc21	176 to 178
COc1ccccc1N1C(=O)C=CC1=O	90 to 91
Cc1cc(C(=O)CCl)c(C)n1CCc1ccccc1	80 to 82
c1ccc(-c2noc(CSc3nnc(-c4ccncc4)o3)n2)cc1	134 to 136
N#Cc1ccc(-n2nccc2N)cc1	114 to 116
Cn1nc(C=O)cc1-c1cccs1	76 to 78
N#Cc1cnc2ccccc2c1N	274 to 276
CN1CCC(O)(c2ccccc2)CC1	111 to 113
CNC(=O)c1ccc(S(=O)(=O)Cl)cc1	125 to 130
N#CCC(=O)NCCN1CCOCC1	68 to 75
COc1ccc(NS(=O)(=O)c2ccc(C(C)=O)cc2)cc1	121 to 123
Cc1n[nH]c(C(=O)O)c1C	288 to 290
CNc1ccncn1	77 to 79
Cc1cc(C(=O)O)c(C)n1-c1nccs1	173 to 175
CC(=O)c1oc2ccccc2c1N	154 to 156
CCN(CC)S(=O)(=O)c1ccc(Cl)c([N+](=O)[O-])c1	88 to 91
